Read-outs that look alike come from different tables or passages of the source.
Experiments:
PC-3 = test: SRB cytotoxicity assay, PC-3 prostate cancer cells; format: cell-based, human
Description: (§1) Cells were stained with SRB solution.

LNCaP = test: SRB cytotoxicity assay, LNCaP prostate cancer cells; format: cell-based, human
Description: as §1

PPC-1 = test: SRB cytotoxicity assay, PPC-1 prostate cancer cells; format: cell-based, human
Description: as §1

[1] = Metabolic stability in human liver microsomes
[2] = tested on: melanoma and prostate cancer cell lines; test: SRB cytotoxicity, summary or average over melanoma and prostate cancer cell lines; format: cell-based; settings: for fold more activity than the comparator: 2e-cis vs 2e-trans, 12jb vs 12kb; for IC50: average of all seven cell lines
[3] = Pharmacokinetic study in Sprague-Dawley rats; settings: for CL (systemic clearance) / Vss (volume of distribution following intravenous dosing): IV, […] (1h, 2r), 5 mg/kg (5Ha, 5Hc); for F (percent oral bioavailability), rat: rats, PO versus IV
DU 145 = test: SRB cytotoxicity assay, DU 145 prostate cancer cells; format: cell-based; settings: Homo sapiens
Description: as §1

MDA-MB-435/LCCMDR1 = test: SRB cytotoxicity assay, multidrug-resistant MDA-MB-435/LCCMDR1 melanoma cells; format: cell-based, human
[4] = Homo sapiens, PC-3, Table 13A, read-out: inhibitory effects PC3
[5] = Homo sapiens, LNCaP, Table 13A, read-out: inhibitory effects LNCaP
[6] = Table 13A, read-out: inhibitory effects DU145
[7] = Homo sapiens, PPC-1, Table 13A, read-out: inhibitory effects PPC1
[8] = Homo sapiens, PC-3, Table 13B, read-out: inhibitory effects PC3
[9] = Homo sapiens, LNCaP, Table 13B, read-out: inhibitory effects LNCaP
[10] = Table 13B, read-out: inhibitory effects DU145
[11] = Homo sapiens, PPC-1, Table 13B, read-out: inhibitory effects PPC1
[12] = Homo sapiens, LNCaP, Table 6A, read-out: IC50 LNCaP
[13] = Table 6A, read-out: IC50 DU 145
[14] = Homo sapiens, PPC-1, Table 6A, read-out: IC50 PPC-1

Molecule: 4-Methoxyphenyl(4-(3,4,5-trimethoxyphenyl)-1H-imidazol-2-yl)methanone and 4-methoxyphenyl(5-(3,4,5-trimethoxyphenyl)-1H-imidazol-2-yl)methanone [70y]
- IC50 (PC-3; Table 13B, read-out: inhibitory effects PC3): 10.4 µM
- IC50 (LNCaP; Table 13B, read-out: inhibitory effects LNCaP): 0.709 µM
- IC50 (PPC-1; Table 13B, read-out: inhibitory effects PPC1): 5.69 µM

Molecule: COc1cc(/C(=N/O)c2csc(-c3ccccc3)n2)cc(OC)c1OC [2e-cis, (Z)-(2-Phenylthiazol-4-yl)(3,4,5-trimethoxyphenyl)methanone oxime]
- half life in human liver microsome [1]: 35 min
- fold more activity than the comparator [2]: 10 fold

Molecule: COc1cc(-c2csc(-c3ccccc3)n2)cc(OC)c1OC [2i, 2-Phenyl-4-(3,4,5-trimethoxyphenyl)thiazole]
- half-life at 0.5 μM ([1]; human, liver microsomes, pH 7.4): 32 min

Molecule: COc1cc(C(=O)c2csc(Nc3ccccc3)n2)cc(OC)c1OC.Cl [5Ha, (2-(phenylamino)thiazol-4-yl)(3,4,5-trimethoxyphenyl)methanone hydrochloride salt]
- CL (systemic clearance) [3]: 17 ± 3 mL/min/kg
- Vss (volume of distribution following intravenous dosing) [3]: 1.4 ± 0.2 L/kg
- F (percent oral bioavailability), rat [3]: 11%

Molecule: COc1cc(C(=O)c2csc(Nc3ccc(F)cc3)n2)cc(OC)c1OC.Cl [5Hc, (2-(p-fluorophenylamino)thiazol-4-yl)(3,4,5-trimethoxyphenyl)methanone hydrochloride salt]
- CL (systemic clearance) [3]: 13 ± 2 mL/min/kg
- Vss (volume of distribution following intravenous dosing) [3]: 1.4 ± 0.2 L/kg
- F (percent oral bioavailability), rat [3]: 21%
- IC50 (PC-3; Homo sapiens, PC-3, Table 6, read-out: IC50 ± SEM PC-3): 0.053 µM
- IC50 (LNCaP; Homo sapiens, LNCaP, Table 6, read-out: IC50 ± SEM LNCaP): 0.053 µM
- IC50 (DU 145; Table 6, read-out: IC50 ± SEM DU 145): 0.07 µM
- IC50 (PPC-1; Homo sapiens, PPC-1, Table 6, read-out: IC50 ± SEM PPC-1): 0.043 µM

Molecule: O=C(c1ccc(F)cc1)c1cn(S(=O)(=O)c2ccccc2)c(-c2ccc(Cl)cc2)n1 [11fb, (2-(4-chlorophenyl)-1-(phenylsulfonyl)-1H-imidazol-4-yl)(4-fluorophenyl)methanone]
- IC50 [2]: 0.072 µM
- IC50 (MDA-MB-435/LCCMDR1; Homo sapiens, Table 14A, multidrug-resistant cell line, n = 3, read-out: IC50 ± SEM MDA-MB-435/LCC6MDR1): 0.035 ± 0.003 µM
- resistance index (MDA-MB-435/LCCMDR1; IC50 on MDA-MB-435/LCC6MDR1 divided by IC50 on MDA-MB-435): 0.7
- resistance index (MDA-MB-435/LCCMDR1; MDA-MB-435/LCCMDR1 versus MDA-MB-435): 0.7

Molecule: CN(C)c1ccc(-c2nc(C(=O)c3ccc(F)cc3)cn2S(=O)(=O)c2ccccc2)cc1 [11gb, (2-(4-(dimethylamino)phenyl)-1-(phenylsulfonyl)-1H-imidazol-4-yl)(4-fluorophenyl)methanone]
- IC50 [2]: 0.087 µM

Molecule: COc1ccc(-c2nc(C(=O)c3cc(OC)c(OC)c(OC)c3)cn2S(=O)(=O)c2ccccc2)cc1OC [11ha, (2-(3,4-dimethoxyphenyl)-1-(phenylsulfonyl)-1H-imidazol-4-yl)(3,4,5-trimethoxyphenyl)methanone]
- IC50 [2]: 0.268 µM

Molecule: COc1cc(OC)cc(C(=O)c2c[nH]c(-c3ccccc3)n2)c1 [12ad, (3,5-dimethoxyphenyl)(2-phenyl-1H-imidazol-4-yl)methanone]
- IC50 [2]: 3.1 µM

Molecule: O=C(c1ccc(F)cc1)c1c[nH]c(-c2ccccc2)n1 [12af, (4-fluorophenyl)(2-phenyl-1H-imidazol-4-yl)methanone]
- IC50 [2]: 0.91 µM

Molecule: Cc1ccc(-c2nc(C(=O)c3ccc(F)cc3)c[nH]2)cc1 [12db, (4-fluorophenyl)(2-(p-tolyl)-1H-imidazol-4-yl)methanone]
- IC50 [2]: 0.109 µM

Molecule: COc1cc(C(=O)c2c[nH]c(-c3ccc(OCc4ccccc4)cc3)n2)cc(OC)c1OC [12ja, (2-(4-(benzyloxy)phenyl)-1H-imidazol-4-yl)(3,4,5-trimethoxyphenyl)methanone]
- IC50 [2]: 7.3 µM

Molecule: O=C(c1ccc(F)cc1)c1c[nH]c(-c2ccc(OCc3ccccc3)cc2)n1 [12jb, (2-(4-(benzyloxy)phenyl)-1H-imidazol-4-yl)(4-fluorophenyl)methanone]
- fold more activity than the comparator [2]: 440 fold
- IC50 [2]: 0.075 µM

Molecule: O=C(c1cc(O)c(O)c(O)c1)c1c[nH]c(-c2ccc(Cl)cc2)n1 [13fa, (2-(4-chlorophenyl)-1H-imidazol-4-yl)(3,4,5-trihydroxyphenyl)methanone]
- IC50 [2]: 3.89 µM

Molecule: COc1cc(C(=O)[C@H]2COC(c3ccccc3)=N2)cc(OC)c1OC [35a, (2R)-(2-Phenyl-4,5-dihydro-oxazol-4-yl)-(3,4,5-trimethoxy-phenyl)-methanone]
- antiproliferative activity in words [2]: hundreds of nanomolar range

Molecule: COc1cc(C(=O)c2coc(-c3ccccc3)n2)cc(OC)c1OC [36a, (2-Phenyl-oxazol-4-yl)-(3,4,5-trimethoxy-phenyl)-methanone]
- antiproliferative activity in words [2]: hundreds of nanomolar range

Molecule: COc1cc(C(=O)c2nc(-c3ccc(F)cc3)c[nH]2)cc(OC)c1OC [70b, (4-(4-fluorophenyl)-1H-imidazol-2-yl)(3,4,5-trimethoxyphenyl)methanone]
- IC50 (PC-3; [4]): 0.196 µM
- IC50 (LNCaP; [5]): 0.114 µM
- IC50 (DU 145; [6]): 0.353 µM
- IC50 (PPC-1; [7]): 0.013 µM

Molecule: COc1cc(C(=O)c2nc(-c3ccc(N(C)C)cc3)c[nH]2)cc(OC)c1OC [70h, (4-(4-(dimethylamino)phenyl)-1H-imidazol-2-yl)(3,4,5-trimethoxyphenyl)methanone]
- IC50 (PC-3; [4]): 0.117 µM
- IC50 (LNCaP; [5]): 0.096 µM
- IC50 (DU 145; [6]): 0.263 µM
- IC50 (PPC-1; [7]): 0.12 µM

Molecule: COc1cc(C(=O)c2nc(-c3ccc(O)cc3)c[nH]2)cc(OC)c1OC [70i, (4-(4-hydroxyphenyl)-1H-imidazol-2-yl)(3,4,5-trimethoxyphenyl)methanone]
- IC50 (PC-3; [4]): 0.155 µM
- IC50 (LNCaP; [5]): 0.219 µM
- IC50 (DU 145; [6]): 0.518 µM
- IC50 (PPC-1; [7]): 0.122 µM

Molecule: COc1cc(C(=O)c2nc(-c3ccccc3)c(C)[nH]2)cc(OC)c1OC [70j, (5-methyl-4-phenyl-1H-imidazol-2-yl)(3,4,5-trimethoxyphenyl)methanone]
- IC50 (PC-3; [4]): 1.62 µM
- IC50 (LNCaP; [5]): 0.938 µM
- IC50 (DU 145; [6]): 2 µM
- IC50 (PPC-1; [7]): 0.86 µM

Molecule: CCc1[nH]c(C(=O)c2cc(OC)c(OC)c(OC)c2)nc1-c1ccccc1 [70k, (5-ethyl-4-phenyl-1H-imidazol-2-yl)(3,4,5-trimethoxyphenyl)methanone]
- IC50 (PC-3; [4]): 3.65 µM
- IC50 (LNCaP; [5]): 2.03 µM
- IC50 (DU 145; [6]): 5.08 µM
- IC50 (PPC-1; [7]): 2.08 µM

Molecule: CCCc1[nH]c(C(=O)c2cc(OC)c(OC)c(OC)c2)nc1-c1ccccc1 [70l, (4-phenyl-5-propyl-1H-imidazol-2-yl)(3,4,5-trimethoxyphenyl)methanone]
- IC50 (PC-3; [4]): 12.4 µM
- IC50 (LNCaP; [5]): 3.09 µM
- IC50 (DU 145; [6]): 16.4 µM
- IC50 (PPC-1; [7]): 11.4 µM

Molecule: O=C(c1ccc(F)cc1)c1nc(-c2ccc(F)cc2)c[nH]1 [70r, (4-fluorophenyl)(4-(4-fluorophenyl)-1H-imidazol-2-yl)methanone]
- IC50 (PC-3; [8]): > 50 µM
- IC50 (LNCaP; [9]): > 50 µM
- IC50 (DU 145; [10]): > 50 µM
- IC50 (PPC-1; [11]): > 50 µM

Molecule: O=C(c1ccc(Cl)cc1)c1nc(-c2ccc(Cl)cc2)c[nH]1 [70s, (4-chlorophenyl)(4-(4-chlorophenyl)-1H-imidazol-2-yl)methanone]
- IC50 (PC-3; [8]): > 50 µM
- IC50 (LNCaP; [9]): > 50 µM
- IC50 (DU 145; [10]): > 50 µM
- IC50 (PPC-1; [11]): > 50 µM

Molecule: O=C(c1ccc(C(F)(F)F)cc1)c1nc(-c2ccc(C(F)(F)F)cc2)c[nH]1 [70u, (4-(trifluoromethyl)phenyl)(4-(4-(trifluoromethyl)phenyl)-1H-imidazol-2-yl)methanone]
- IC50 (PC-3; [8]): > 50 µM
- IC50 (LNCaP; [9]): > 50 µM
- IC50 (DU 145; [10]): > 50 µM
- IC50 (PPC-1; [11]): > 50 µM

Molecule: Cc1ccc(C(=O)c2nc(-c3ccc(C)cc3)c[nH]2)cc1 [70v, p-tolyl(4-p-tolyl-1H-imidazol-2-yl)methanone]
- IC50 (PC-3; [8]): 5.16 µM
- IC50 (LNCaP; [9]): 3.76 µM
- IC50 (DU 145; [10]): 6.54 µM
- IC50 (PPC-1; [11]): 2.41 µM

Molecule: COc1ccc(C(=O)c2nc(-c3ccc(OC)cc3)c[nH]2)cc1 [70w, (4-methoxyphenyl)(4-(4-methoxyphenyl)-1H-imidazol-2-yl)methanone]
- IC50 (PC-3; [8]): 23.4 µM
- IC50 (LNCaP; [9]): 6.41 µM
- IC50 (DU 145; [10]): 9.39 µM
- IC50 (PPC-1; [11]): 38.1 µM

Molecule: COc1cc(-c2c[nH]c(C(=O)c3ccc(Br)cc3)n2)cc(OC)c1OC [70z, 4-bromophenyl(4-(3,4,5-trimethoxyphenyl)-1H-imidazol-2-yl)methanone]
- IC50 (PC-3; [8]): 0.371 µM
- IC50 (LNCaP; [9]): 0.131 µM
- IC50 (DU 145; [10]): 0.43 µM
- IC50 (PPC-1; [11]): 0.107 µM

Molecule: Cc1ccc(-c2nc(C(=O)c3ccc(F)cc3)cs2)cc1 [compound 11]
- IC50 (LNCaP; [12]): > 10 µM
- IC50 (DU 145; [13]): ~10 µM
- IC50 (PPC-1; [14]): ~10 µM

Molecule: COc1ccc(C(=O)n2ccnc2-c2ccc(F)cc2)cc1 [compound 24]
- IC50 (PC-3; Homo sapiens, PC-3, Table 6A, read-out: IC50 PC-3): > 10 µM
- IC50 (LNCaP; [12]): > 10 µM
- IC50 (DU 145; [13]): > 10 µM
- IC50 (PPC-1; [14]): > 10 µM
